In PMC11066877, “Development and Characterization of Novel FAP-Targeted Theranostic Pairs: A Bench-to-Bedside Study” (Research, 2023):

Columns and labels:
[1] = microPET/CT imaging, ROI analysis, BxPC-3 tumor models; type: in vivo, mice; conditions: nude (thymus-free), mouse, intravenous, 3 MBq, 4 h p.i.
Procedure: (§1) A human pancreatic cancer cell line BxPC-3 and a murine pancreatic cancer cell Panc-02 were obtained from the American Type Culture Collection. The pancreatic cancer cell line T3M-4 was purchased by MeisenCTCC (Zhejiang, China). BxPC-3 and T3M-4 cell lines were grown in RPMI 1640 medium (Shanghai BasalMedia Technologies Co., LTD.) containing 10% FBS (GE Healthcare, Chicago, IL, USA) and 1% penicillin–streptomycin solution (Invitrogen). To culture the Panc-02 cell line, a medium called Dulbecco’s modified Eagle medium from Shanghai BasalMedia Technologies Co., LTD. was used, which consisted of 10% FBS. The cell line HT-1080 was grown in MEM medium (Shanghai BasalMedia Technologies Co., LTD.) supplemented with 10% FBS, 1% penicillin-streptomycin solution, and 1% nonessential amino acids (NEAA-11140050; Gibco). A human fibrosarcoma cell line was stably transfected with FAP (HT1080-FAP) and cultured, as we previously described. All cell lines were cultured in a humid incubator with 5% CO2 at a temperature of 37 °C. Approval was granted by the Institutional Animal Care and Use Committee (Renji Hospital, School of Medicine, Shanghai Jiao Tong University) for all experimental protocols and procedures related to animal care. Panc-02 cells were implanted by subcutaneous injection of 5 × 10^6 tumor cells suspended in 100 μl PBS and matrigel matrix (Corning) with equal volume into the upper limb flank of C57BL/6 mice (Shanghai Sheng Chang Biotechnology Co., Ltd.). Four- to 6-week-old thymus-free nude mice (GemPharmatech) were subcutaneously inoculated with BxPC-3, T3M-4, HT-1080, and HT1080-FAP cells (5 × 10^6 in 100 μl of PBS mixing with 100 μl matrigel matrix) in the right shoulder. […]
(§2) MicroPET imaging was performed on isoflurane-anesthetized mice injected intravenously via the lateral tail vein with around 3 MBq (2.5 nmol) of the radioligand at certain times. […] The information was analyzed using OsiriX Lite software (Pixmeo SARL) and Inveon Research Workplace (Siemens Preclinical Solutions). […]

[2] = microPET/CT imaging, ROI analysis, Panc-02 tumor models; type: in vivo, mice; conditions: C57BL/6, mouse, intravenous, 3 MBq, 4 h p.i.
Procedure: as §1, §2

[3] = microPET/CT imaging, ROI analysis, HT-1080 tumor models; type: in vivo, mice; conditions: nude (thymus-free), mouse, intravenous, 3 MBq, 4 h p.i.
Procedure: as §1, §2

[4] = Stability of 177Lu-labeled radiopharmaceuticals in FBS and PBS; type: in vitro ADME; conditions: 50% FBS and 50% PBS, checked at 2 h and 24 h
Procedure: To perform ^68Ga-labeling, approximately 20 nmol of FD1, FD2, or FD3 was dissolved in 20 μl of dimethyl sulfoxide and 230 μl of sterile deionized water. This mixture was added to 400 μl of ^68GaCl3 solution (containing 37 MBq) in 0.1 M HCl, with pH adjusted to 4.0 using 0.1 M NH4OAC. The mixture was incubated at 100 °C for 10 min without any additional purification steps. For ^177Lu-labeling, high-purity radionuclide ^177LuCl3 in 0.04 M HCl (3.9 GBq in 97 μl) was purchased from ITM (Munich, Germany). ^177LuCl3 solution (555 MBq in 0.04 M HCl) was added to 500 μl of 1M NH4OAC (pH = 5), followed by the addition of 375 nmol of FD1, FD2, or FD3. The solution was shaken at a temperature of 100 °C for a duration of 30 min. Instant thin-layer chromatography (iTLC; Eckert & Ziegler Radiopharma Inc.) was used to evaluate the RCP of the final products. For iTLC, the mobile phase consisted of 1 M NH4OAC and methyl alcohol in a ratio of 1:1. The final solution must be adjusted to pH 7.0 before being injected into the experimental mice via the tail vein. The stability of ^177Lu-labeled radiopharmaceuticals was evaluated in a mixture of 50% FBS and 50% PBS at 2 h and 24 h after preparation. In the process of preparing each [^68Ga]Ga-DOTA-FD1 for clinical imaging, the end product underwent sterilization by passing it through a 0.22-μm Millipore filter.

[5] = Ex vivo biodistribution of 177Lu-labeled radioligands in tumor-free nude mice; conditions: mouse, intravenous, 1.11 MBq, total radioactivity
Source text: After imaging collection and image reconstruction, samples from euthanized experimental mice, including blood and multiple significant organs, were harvested and weighed. The radioactivity in each collected tissue was counted using an automated gamma counter (Wizard 2480, PerkinElmer) and the accumulation of radioactivity in different tissues and organs was quantified and expressed as %ID/g (mean ± SD). [^177Lu]Lu-DOTA-FD1 (~1.11 MBq, n = 3), [^177Lu]Lu-DOTA-FD2 (~1.11 MBq, n = 3), and [^177Lu]Lu-DOTA-FD3 (~1.11 MBq, n = 3) were injected into the tail vein of free nude mice at 6 h, 24 h, and 24 h for ex vivo biodistribution to verify the circulation time of the 3 probes in vivo. Biodistribution data from tumor-bearing mice injected with [^177Lu]Lu-DOTA-FD3 at 45 h (~1.11 MBq, n = 4) and 90 h (~1.11 MBq, n = 3) validated the prolonged enrichment of the probe at the tumor site. At the end of each probe imaging and radioactivity counting study, tumor tissues were fixed in paraformaldehyde tissue fixative. Briefly, sections of 10 μm were cut and stained for H&E following the standard protocols. IHC staining with a FAP antibody (ab227703, Abcam) was performed only on tumor tissues following accepted techniques.

HT1080-FAP tumor = assay: FAP-targeted radioligand therapy in HT1080-FAP tumor models; type: in vivo, mice
Procedure: HT1080-FAP tumor models with higher levels of FAP expression were utilized in this study. Tumor-bearing mice were subjected to therapy experiments when the tumor volume reached 50 to 180 mm^3. Tumor models with different tumor volumes were injected with different therapeutic doses. Mice bearing HT1080-FAP tumors of slightly larger tumor volumes were randomly assigned into 4 groups (n = 5 per group): control group and treatment groups with 800 μCi of [^177Lu]Lu-DOTA-FD1, 400 μCi of [^177Lu]Lu-DOTA-FD3, and 600 μCi [^177Lu]Lu-DOTA-FD3. Mice bearing HT1080-FAP tumors of slightly smaller tumor volumes were also divided into 4 groups (n = 6 per group): control group and treatment groups with 200 μCi of [^177Lu]Lu-DOTA-FD1, 200 μCi of [^177Lu]Lu-DOTA-FD2, and 200 μCi of [^177Lu]Lu-DOTA-FD3. Tumor volume and mice body weight were examined daily after a single-dose injection. Weight monitoring is expressed as a percentage of initial weight on the measurement day. Tumor volume was measured as half of the length × width squared times. Mice were euthanized when the tumor volume exceeded 1,500 mm^3, the tumor ruptured, or when it lost more than 20% of its body weight. T3M-4 tumor models with abundant stroma were established to validate the therapeutic efficacy of [^177Lu]Lu-DOTA-FD3. When the tumor volume grew to 100 to 150 mm^3, the mice were randomly divided into 2 groups (n = 7 per group): free ^177Lu treatment group and 500 μCi [^177Lu]Lu-DOTA-FD3 treatment group. Tumor volume and mice body weight were examined every 2 days.

tissue uptake at 4 h [1] [%ID/g]	tissue uptake at 4 h [2] [%ID/g]	tissue uptake at 4 h [3] [%ID/g]	stable in FBS and PBS, no significant demetallation [4]	tissue uptake at 6 h ([5]; kidney, 6 h p.i., read-out: radioactivity uptake in kidneys (biodistribution)) [%ID/g]	tissue uptake at 24 h ([5]; blood, 24 h p.i., read-out: accumulation in the blood pool (biodistribution)) [%ID/g]	Structure (SMILES)	tumor volume versus control group (HT1080-FAP tumor; average tumor volume 180 mm^3 at onset, single dose 800 μCi)	tumor growth at the end of the study (HT1080-FAP tumor; average tumor volume 50 mm^3 at onset, single dose 200 μCi)	mice that acquired complete response (CR) (HT1080-FAP tumor; average tumor volume 50 mm^3 at onset, single dose 200 μCi, 6 mice per group)
7.07 ± 0.45	7.03 ± 1	9.97 ± 0.42	–	–	–	CCCCCC(=O)N[C@H]1CSCc2cc(CSCCNC(=O)[C@H](CCCCNC(=O)CCCc3ccc(I)cc3)NC(=O)[C@@H](NC(=O)[C@H](CCSC)NC(=O)CN3CCN(CC(=O)O)CCN(CC(=O)O)CCN(CC(=O)O)CC3)C(C)C)cc(c2)CSC[C@@H](C(=O)O)NC(=O)[C@H](Cc2ccccc2)NC(=O)[C@H](CCC(N)=O)NC(=O)[C@H]([C@@H](C)O)NC(=O)[C@@H]2CCCN2C(=O)[C@@H]2CCCN2C1=O [[^68Ga]Ga-DOTA-FD3, metal not drawn]	–	–	–
–	–	–	at least 24 h	30.4 ± 3.1	–	CCCCCC(=O)N[C@H]1CSCc2cc(CSCCNC(=O)[C@H](CCCCN)NC(=O)[C@@H](NC(=O)[C@H](CCSC)NC(=O)CN3CCN(CC(=O)O)CCN(CC(=O)O)CCN(CC(=O)O)CC3)C(C)C)cc(c2)CSC[C@@H](C(=O)O)NC(=O)[C@H](Cc2ccccc2)NC(=O)[C@H](CCC(N)=O)NC(=O)[C@H]([C@@H](C)O)NC(=O)[C@@H]2CCCN2C(=O)[C@@H]2CCCN2C1=O [[^177Lu]Lu-DOTA-FD1, metal not drawn]	no difference in tumor volume	–	–
–	–	–	at least 24 h	–	31.8 ± 2.24	CCCCCC(=O)N[C@H]1CSCc2cc(CSCCNC(=O)[C@H](CCCCNC(=O)CCCc3ccc(I)cc3)NC(=O)CN3CCN(CC(=O)O)CCN(CC(=O)O)CCN(CC(=O)O)CC3)cc(c2)CSC[C@@H](C(=O)O)NC(=O)[C@H](Cc2ccccc2)NC(=O)[C@H](CCC(N)=O)NC(=O)[C@H]([C@@H](C)O)NC(=O)[C@@H]2CCCN2C(=O)[C@@H]2CCCN2C1=O [[^177Lu]Lu-DOTA-FD2, metal not drawn]	–	substantially inhibited the tumor growth	1 of the 6
